According to paper PMC6440464 (PeerJ, 2019):
“And” between values parts separate entries of the source, which are not always exact repeats. Identical values can stand only once.

Tests used:
[1] = parameters: method as in Yoshino et al., 2011; conditions: ref Yoshino et al., 2011; cited from earlier work
[2] = Pharmacokinetics study after separate oral administration in rats (HPLC-MS of plasma); assay type: in vivo, Sprague-Dawley rats; conditions: for Plasma concentrations: individual rats NO. 1-5; for AUC(0-t) / Cmax / MRT(0-t) / Tmax / t1/2z / CLz/F: labelled substance = analyte, individual rats No1-No5
Experimental: A total of 15 SPF Sprague-Dawley rats (SD, male, 190–210 g) were provided by Sino-British Sippr/BK Lab Animal Company Ltd. (Shanghai, China). The rats were kept in standard conditions (22–26 °C; 40–60% relative humidity; 12 h light/dark cycle). Throughout the rearing period, the animals had access to food and water ad libitum. Animal experiments were conducted in accordance with the standard ethical guidelines of the Laboratory Animal Management Committee of Jiangsu Province (SYXK (SU) 2016-0011).
Following 1 week of adaptation, the rats were fasted for about 12 h before dosing, with free access to water. […] After administration of the first dose, blood samples were taken from the retro-orbital vein at 0, 5, 15, 30, 60, 90, 120, 180, 240, 360, 480, and 1,440 min and collected in heparinized tubes. The samples were centrifuged at 3,500 rpm for 10 min at 4 °C and the plasma was stored at −80 °C until analysis.
An Agilent 1,200 series HPLC system (Agilent Technologies, Waldbronn, Germany) equipped with a quaternary pump on-line degasser, auto-sampler and column oven, and an SL G1946D quadruple mass spectrometer (Agilent Technologies, Santa Clara, CA, USA) equipped with an electrospray ionization (ESI) source, were used for separation and detection. Data were acquired and analyzed using Agilent ChemStation Software Version A.01.00 (Agilent Technologies, Santa Clara, CA, USA).
The separation was carried out with an Amethyst C18-H column (150 × 4.6 mm, 5 μm, Sepax Technologies, Newark, DE, USA) with a guard column SB-C18 (10 × 4.6 mm, 5 μm, Phenomenex Technologies, Torrance, USA) at a constant temperature of 25 °C.
The mass spectra were acquired using ESI interfaced to a single quadrupole mass spectrometer. The ionization conditions were as follows: drying gas (N2) flow rate of 11 L/min, drying gas temperature of 350 °C, nebulizing gas (N2) pressure of 35 psi, capillary voltage of 3,500 V, quad temperature of 100 °C, and fragment voltage of 110 V. A series of m/z were monitored using a timed program according to the retention times and characteristic ions for the corresponding HPLC-MS peak obtained by scanning from m/z 100–1,000 in the standard sample.
Briefly, an aliquot of plasma sample (100 μL) was spiked with 5% formic acid (10 μL) in centrifuge tube. Subsequently, hydrochloric acid (2 mol/L, 10 μL) and IS solution (960.00 ng/mL, 20 μL) were added. Then ethyl acetate/n-butyl alcohol (1:1 v/v; 1,000 μL) was used to extract the components. The samples were then homogenized by vortex mixing and centrifuged for 10 min at 14,000 rpm. After centrifugation, 800 μL of supernatant was transferred to another centrifuge tube and the sample was evaporated to dryness. The residues were dissolved in 100 μL of methanol and centrifuged for 10 min at 12,000 rpm. 50 μL of the supernatant was transferred to the vial and an aliquot of 5 μL was injected into the HPLC-MS system for analysis.
DAS 2.0 (Chinese Pharmacological Association, Shanghai, China) was used to calculate the pharmacokinetic parameters using the non-compartment model, including the area under curve (AUC), mean residence time (MRT), half-life ( t1/2z), clearance rate (CL), maximum plasma concentration (Cmax), and time (Tmax). All results are expressed as mean ± standard deviation (SD). One way analysis of variance followed by […] was used for comparison of different groups using Graph pad prism 5 software. A p-value of <0.05 was considered statistically significant.

[3] = IQ group (oral IQ 50 mg/kg), rat plasma
[4] = QG group (oral QG 50 mg/kg), rat plasma
[5] = Qr group (oral Qr 50 mg/kg), rat plasma

O=C(O)[C@H]1O[C@@H](Oc2c(-c3ccc(O)c(O)c3)oc3cc(O)cc(O)c3c2=O)[C@H](O)[C@@H](O)[C@@H]1O [QG, Quercetin-3-O-β-D-glucuronide]
Toxicity compared with its aglycone [1]: much less toxic
Plasma concentrations ([2]; IQ group (oral IQ 50 mg/kg), 5 min): 0.7646 µg/mL and 1.0569 µg/mL
Plasma concentrations ([2]; IQ group (oral IQ 50 mg/kg), 120 min): 0.6158 µg/mL and 0.5082 µg/mL and 0.7807 µg/mL and 0.6334 µg/mL
Plasma concentrations ([2]; IQ group (oral IQ 50 mg/kg), 180 min): 0.8736 µg/mL and 0.5334 µg/mL and 0.3826 µg/mL and 0.3965 µg/mL and 0.7922 µg/mL
Plasma concentrations ([2]; IQ group (oral IQ 50 mg/kg), 240 min): 0.2228 µg/mL and 0.5709 µg/mL and 0.5714 µg/mL and 0.4349 µg/mL and 0.8190 µg/mL
Plasma concentrations ([2]; IQ group (oral IQ 50 mg/kg), 360 min): 0.1194 µg/mL and 0.8107 µg/mL and 0.4137 µg/mL and 0.6925 µg/mL and 0.8505 µg/mL
Plasma concentrations ([2]; IQ group (oral IQ 50 mg/kg), 480 min): 0.4225 µg/mL and 0.4165 µg/mL and 0.1673 µg/mL and 0.2461 µg/mL and 0.7377 µg/mL
Plasma concentrations ([2]; IQ group (oral IQ 50 mg/kg), 1440 min): 0.0935 µg/mL and 0.0847 µg/mL and 0.0809 µg/mL and 0.0651 µg/mL and 0.3494 µg/mL
AUC(0-t) [2, 3]: 597.432 mg·min/L and 994.801 mg·min/L and 564.315 mg·min/L and 660.84 mg·min/L
Cmax [2, 3]: 4534 ng/mL and 5953 ng/mL and 2825 ng/mL and 2800 ng/mL and 3414 ng/mL
MRT(0-t) [2, 3]: 4.64393 h and 8.49298 h and 6.06248 h and 5.82378 h
Tmax [2, 3]: 30 min
t1/2z [2, 3]: 7.29975 h and 8.1253 h and 14.3264 h and 6.69975 h and 7.17603 h
Detection in rat plasma ([2]; IQ group: oral IQ 50 mg/kg): measured
Plasma concentrations ([2]; QG group (oral QG 50 mg/kg), 5 min): 0.0814 µg/mL and 0.1791 µg/mL and 0.1562 µg/mL and 0.4345 µg/mL and 0.2229 µg/mL
Plasma concentrations ([2]; QG group (oral QG 50 mg/kg), 120 min): 0.0799 µg/mL and 0.2388 µg/mL and 0.5950 µg/mL and 0.1120 µg/mL and 0.2189 µg/mL
Plasma concentrations ([2]; QG group (oral QG 50 mg/kg), 180 min): 0.7950 µg/mL and 1.4327 µg/mL and 2.4032 µg/mL and 0.2061 µg/mL and 1.3248 µg/mL
Plasma concentrations ([2]; QG group (oral QG 50 mg/kg), 240 min): 1.3178 µg/mL and 2.6305 µg/mL and 2.4984 µg/mL and 0.6490 µg/mL and 1.6470 µg/mL
Plasma concentrations ([2]; QG group (oral QG 50 mg/kg), 360 min): 0.1076 µg/mL and 2.2429 µg/mL and 3.2289 µg/mL and 1.3605 µg/mL and 1.5082 µg/mL
Plasma concentrations ([2]; QG group (oral QG 50 mg/kg), 480 min): 0.0874 µg/mL and 0.7211 µg/mL and 1.7586 µg/mL and 0.4951 µg/mL and 0.6594 µg/mL
Plasma concentrations ([2]; QG group (oral QG 50 mg/kg), 1440 min): 0.0575 µg/mL and 0.2816 µg/mL and 0.1651 µg/mL and 0.1404 µg/mL and 0.1134 µg/mL
AUC(0-t) [2, 4]: 268.635 mg·min/L and 1176.18 mg·min/L and 1861.7 mg·min/L and 635.402 mg·min/L and 871.691 mg·min/L
CLz/F [2, 4]: 0.17 L/min/kg and 0.038 L/min/kg and 0.026 L/min/kg and 0.067 L/min/kg and 0.054 L/min/kg
Cmax [2, 4]: 1318 ng/mL and 2631 ng/mL and 3229 ng/mL and 1365 ng/mL and 1647 ng/mL
MRT(0-t) [2, 4]: 7.8607 h and 7.11965 h and 7.95713 h and 7.028 h
t1/2z [2, 4]: 6.12582 h and 5.27942 h and 8.9772 h and 6.00847 h
Detection in rat plasma ([2]; QG group: oral QG 50 mg/kg): could be detected in rat plasma
CL ([2]; QG group: oral QG 50 mg/kg, rat plasma, mean ± SD, n = 5): 71 ± 57 mL/min/kg
Plasma concentrations ([2]; Qr group (oral Qr 50 mg/kg), 5 min): 0.3755 µg/mL and 1.9735 µg/mL and 1.3717 µg/mL and 1.2834 µg/mL
Plasma concentrations ([2]; Qr group (oral Qr 50 mg/kg), 120 min): 1.6399 µg/mL and 0.4649 µg/mL and 2.4126 µg/mL and 2.1713 µg/mL and 0.6055 µg/mL
Plasma concentrations ([2]; Qr group (oral Qr 50 mg/kg), 180 min): 1.1714 µg/mL and 0.4542 µg/mL and 1.7560 µg/mL and 4.1932 µg/mL and 1.1826 µg/mL
Plasma concentrations ([2]; Qr group (oral Qr 50 mg/kg), 240 min): 1.0033 µg/mL and 1.3275 µg/mL and 1.0605 µg/mL and 1.9477 µg/mL and 0.8307 µg/mL
Plasma concentrations ([2]; Qr group (oral Qr 50 mg/kg), 360 min): 1.0844 µg/mL and 1.0457 µg/mL and 0.9781 µg/mL and 1.2903 µg/mL and 0.5532 µg/mL
Plasma concentrations ([2]; Qr group (oral Qr 50 mg/kg), 480 min): 0.9932 µg/mL and 0.4529 µg/mL and 0.7247 µg/mL and 0.7786 µg/mL and 0.5843 µg/mL
Plasma concentrations ([2]; Qr group (oral Qr 50 mg/kg), 1440 min): 0.1552 μg/mL and 0.4031 μg/mL and 0.5308 μg/mL and 0.0000 μg/mL (2×)
AUC(0-t) [2, 5]: 1269.04 mg·min/L and 1058.23 mg·min/L and 1705.01 mg·min/L and 1261.98 mg·min/L and 455.81 mg·min/L
CLz/F [2, 5]: 0.037 L/min/kg and 0.034 L/min/kg (2×) and 0.019 L/min/kg and 0.093 L/min/kg
Cmax [2, 5]: 4415 ng/mL and 6941.3 ng/mL and 9165 ng/mL and 9211 ng/mL and 2540 ng/mL
MRT(0-t) [2, 5]: 6.1781 h and 7.68988 h and 6.69422 h and 2.72245 h and 3.04182 h
Tmax [2, 5]: 30 min and 60 min (2×)
t1/2z [2, 5]: 7.30138 h and 12.1634 h and 20.1775 h and 3.02307 h and 2.81598 h
Detection in rat plasma ([2]; Qr group: oral Qr 50 mg/kg): detected
